Earlier results as cited in patent publication US20140044668A1, “Methods for Predicting Cardiovascular Risks and Responsiveness to Statin Therapy Using SNPs” (THE OHIO STATE UNIVERSITY, priority 2011, published 2014).

Biological target: T1, CETP (Homo sapiens, UniProt P11597)
T1 sequence (P11597 18-493): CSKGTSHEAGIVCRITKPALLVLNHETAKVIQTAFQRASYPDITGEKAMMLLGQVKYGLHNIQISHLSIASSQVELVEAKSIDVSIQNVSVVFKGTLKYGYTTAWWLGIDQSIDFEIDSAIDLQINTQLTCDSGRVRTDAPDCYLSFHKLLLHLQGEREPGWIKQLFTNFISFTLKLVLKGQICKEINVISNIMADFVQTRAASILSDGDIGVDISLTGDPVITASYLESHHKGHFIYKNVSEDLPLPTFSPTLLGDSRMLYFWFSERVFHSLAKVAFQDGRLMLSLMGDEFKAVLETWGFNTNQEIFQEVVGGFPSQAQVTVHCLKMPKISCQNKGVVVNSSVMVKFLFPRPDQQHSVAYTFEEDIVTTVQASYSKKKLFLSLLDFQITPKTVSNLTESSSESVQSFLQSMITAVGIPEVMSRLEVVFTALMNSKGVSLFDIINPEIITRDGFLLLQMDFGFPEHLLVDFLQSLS
Settings: in vivo

In the case of `CCOC(=O)N1c2ccc(C(F)(F)F)cc2[C@@H](N(Cc2cc(C(F)(F)F)cc(C(F)(F)F)c2)C(=O)OC)C[C@H]1CC` [torcetrapib], the HDL is listed as “HDL increased”, the LDL is listed as “LDL decreased substantially” and the cardiovascular events is listed as “increase cardiovascular events”.
